According to patent US20200291100A1, “TREATMENT OF AGE-RELATED AND MITOCHONDRIAL DISEASES BY INHIBITION OF HIF-1 ALPHA FUNCTION” (President and Fellows of Harvard College, priority 2012, published 2020):

Legend:
[1] = test system: SIRT1-tg mice; assay: DMOG treatment of SIRT1-tg mice, gastrocnemius readouts; type: in vivo, mouse; conditions: DMOG 300 mg/kg IP per day, 5 days
Description: Whole body SIRT1 overexpressor (SIRT1-tg) mice of 6 months of age were given interperitoneal (IP) injections of 300 mg DMOG/kg body weight per day or the equivalent volume of PBS for 5 consecutive days.
(§1) ATP content was measured with a commercial kit according to the manufacturer's instructions (Roche).
RNA from skeletal muscle tissue and C2C12 cells were extracted with RNeasy mini kit (Qiagen) according to the instructions and quantified using the NanoDrop 1000 spectrophotometer (Thermo Scientific). cDNA was synthesized with the iSCRIP cDNA synthesis kit (BioRad) using 600 ng of RNA. Quantitative RT-PCR reactions were performed using 1 μM of primers and LightCycler® 480 SYBR Green Master (Roche) on an LightCycler® 480 detection system (Roche). Calculations were performed by a comparative method (2-ΔCT) using 18S as an internal control. For mtDNA analysis, total DNA was extracted with DNeasy blood and tissue kit (Qiagen). mtDNA was amplified using primers specific for the mitochondrial cytochrome c oxidase subunit 2 (COX2) gene and normalized to genomic DNA by amplification of the ribosomal protein s18 (rps18) nuclear gene. Primers were designed using the IDT software (IDT) and the primer sequences can be found in Table 1.
Protein extracts from tissue or C2C12 cells were obtained by lysis in ice-cold lysis buffer (150 mM NaCl, 10 mM Tris HCl (pH 7.4), 1 mM EDTA, 1 mM EGTA, 1% Triton X-100, 0.5% NP-40) supplemented with a cocktail of protease and phosphatase inhibitors (Roche). Protein content was determined by the Bradford protein assay (Biorad), and 50 μg proteins were run on SDS-PAGE under reducing conditions. The separated proteins were then electrophoretically transferred to a polyvinylidene difluoride membrane (Perkin-Elmer). […] The immunostaining was detected using horseradish peroxidase-conjugated anti-rabbit or anti-mouse immunoglobulin for 1 h at room temperature.

[2] = test system: primary myoblasts; assay: NMN in primary myoblasts with NMNAT1 knockdown, qPCR of mitochondrial-encoded genes; type: cell-based, mouse; conditions: cells with knockdown of NMNAT1 versus nontargeting shRNA
Description: FIGS. 17A-17L reveal that increasing NAD+ levels rescues age-related mitochondrial and muscle dysfunction through a SIRT1-HIF-1α pathway. FIG. 17A depicts NAD+ levels in gastrocnemius of 3- and 24-month-old mice treated with either the vehicle (PBS) or NMN (n=5, *p<0.05 versus 3-month-old PBS animals, #p<0.05 versus 24-month-old PBS animals). FIG. 17B depicts ATP content in gastrocnemius of 6- and 22-month-old mice treated with either the vehicle (PBS) or NMN (n=6). FIG. 17C depicts expression of mitochondrial-encoded genes (ND1, Cytb, COX1 and ATP6) analyzed by qPCR in gastrocnemius of 6- and 22-month-old mice treated with either the vehicle (PBS) or NMN. Relative expression values were normalized to 6-months old PBS mice (n=6). […] FIG. 17F depicts expression of mitochondrial-encoded genes (ND1, Cytb, COX1 and ATP6) analyzed by qPCR in gastrocnemius of WT and Egln1 KO mice treated with either the vehicle (PBS) or NMN. […] FIG. 17H depicts expression of mitochondrial-enoded genes (ND1, Cytb, COX1 and ATP6) analyzed by qPCR in primary myoblasts WT cells infected with NMNAT1 or nontargeting shRNA treated with either the vehicle (PBS) or NMN. […] FIG. 17I depicts expression of mitochondrial-encoded genes (ND1, Cytb, COX1 and ATP6) analyzed by qPCR in gastrocnemius of WT and SIRT1 KO mice treated with either the vehicle (PBS) or NMN. […] Values are expressed as mean±SEM. […]

[3] = test system: Egln1 KO mice; assay: NMN treatment of Egln1 KO mice; type: in vivo, mouse; conditions: skeletal muscle of Egln1 KO mice compared to WT controls; NMN 500 mg/kg IP, 7 days
Description: Whole body adult-inducible Egln1 knockout mice (Minamishima et al, 2007) were treated with IP injection of tamoxifen for 3 days after which they were allowed to rest. The mice were given interperitoneal (IP) injections of 500 mg NMN/kg body weight per day or the equivalent volume of PBS for 7 consecutive days at 5:00 pm and 7:00 am on day 8 and sacrificed 4 hr after last injection. All animal studies followed the guidelines of and were approved by the Harvard Institutional Animal Care and Use Committee.
as §1
RNA from skeletal muscle tissue and C2C12 cells were extracted with RNeasy mini kit (Qiagen) according to the instructions and quantified using the NanoDrop 1000 spectrophotometer (Thermo Scientific). cDNA was synthesized with the iSCRIP cDNA synthesis kit (BioRad) using 600 ng of RNA. Quantitative RT-PCR reactions were performed using 1 μM of primers and LightCycler® 480 SYBR Green Master (Roche) on an LightCycler® 480 detection system (Roche). Calculations were performed by a comparative method (2-ΔCT) using 18S as an internal control. […]

Structure (SMILES) | HIF-1α protein (immunoblot) [1] | effect on the increase in ATP levels observed in SIRT1-tg mice [1] | effect on the increase in expression of mitochondrial-encoded genes observed in SIRT1-tg mice [1] | ability of NMN to induce the expression of mitochondrial-encoded genes [2] | ATP levels [3] | mitochondrial-encoded genes [3]
COC(=O)CNC(=O)C(=O)OC [DMOG, dimethyloxaloylglycine] | increase HIF-1α | abolished the increase | abolished the increase |  |  | 
NC(=O)c1ccc[n+]([C@@H]2O[C@H](COP(=O)([O-])O)[C@@H](O)[C@H]2O)c1 [NMN, nicotinamide mononucleotide] |  |  |  | completely abolishes | did not restore | did not restore
